US6034238A, “Heterocyclic compounds, their preparation and their use as leucocyte adhesion inhibitors and VLA-4-antagonists” (Hoechst Marion Roussel Deutschland GmbH, priority 1997, dated 2000)

Molecular target: T1, interaction between VCAM-1 and VLA-4 (Homo sapiens, UniProt P05556+P13612)
T1 construct: supplied in their natural form as surface molecules on human U937 cells; host or cells: U937 (human)
Test: U937/VCAM-1 cell adhesion test (adhesion of U937 cells to hVCAM-1 (1-3)-IgG)
Format: cell-based
Details: read-out: IC50 (50% inhibition of adhesion)
Excerpt: The test method used for the activity of the compounds of the formula I on the interaction between VCAM-1 and VLA-4 is an assay which is specific for this interaction. The cellular binding components, i.e., the VLA4 integrins, are supplied in their natural form as surface molecules on human U937 cells (ATCC CRL 1593), which belong to the leucocytes group. The specific binding components used are genetically engineered recombinant soluble fusion proteins, consisting of the extracytoplasmatic domain of human VCAM-1 and the constant region of a human immunoglobulin of the subclass IgG1.
Assay for the measurement of the adhesion of U937 cells (ATCC CRL 1593) to hVCAM-1 (1-3)-IgG
1. Preparation of human VCAM-1(1-3)-IgG and human CD4-IgG
A genetic construct for the expression of the extracellular domain of human VCAM-1, associated with the genetic sequence of the heavy chain of human immunoglobulin IgG1 (hinge, CH2 and CH3 regions), from Dr. Brian Seed, Massachusetts General Hospital, Boston, USA (cf. Damle and Aruffo, Proc. NatI. Acad. Sci. USA 1991, 88, 6403-6407) was employed. The soluble fusion protein hVCAM-1 (1-3)-IgG contained the three amino-terminal extracellular immunoglobulin-like domains of human VCAM-1 (Damle and Aruffo, Proc. Natl. Acad. Sci. USA 1991, 88, 6403). CD4-IgG (Zeftimeissl et al., DNA and Cell Biology 1990, 9, 347) served as a fusion protein for negative controls. The recombinant proteins were expressed as soluble proteins after DEAE/dextran-mediated DNA transfection in COS cells (ATCC CRL1651) according to standard procedures (Ausubel et al., Current Protocols in Molecular Biology, John Wiley & Sons, Inc., 1994).
2. Assay for the measurement of the adhesion of U937 cells to hVCAM-1 (1-3)-IgG
2.1 96-well microtiter test plates (Nunc Maxisorb) were incubated at room temperature for 1 hour with 100 μl/well of a goat-anti-human-IgG antibody solution (10 μg/ml in 50 mM tris, pH 9.5). After removal of the antibody solution, washing was carried out once with PBS.
2.2 150 μl/well of a blocking buffer (1% BSA in PBS) was incubated on the plates at room temperature for 0.5 hour. After removal of the blocking buffer, washing was carried out once with PBS.
2.3 100 μl per well of a cell culture supernatant of transfected COS cells was incubated on the plates at room temperature for 1.5 hours. The COS cells were transfected with a plasmid which codes for the three N-terminal immunoglobulin-like domains of VCAM-1, coupled to the Fc part of human IgG1 (hVCAM-1(1--3)-IgG). The content of hVCAM-1 (1-3)-IgG was about 0.5-1 μg/ml. After removal of the culture supernatant washing was carried out once with PBS. […]

T1 sequence (P13612 34-1032): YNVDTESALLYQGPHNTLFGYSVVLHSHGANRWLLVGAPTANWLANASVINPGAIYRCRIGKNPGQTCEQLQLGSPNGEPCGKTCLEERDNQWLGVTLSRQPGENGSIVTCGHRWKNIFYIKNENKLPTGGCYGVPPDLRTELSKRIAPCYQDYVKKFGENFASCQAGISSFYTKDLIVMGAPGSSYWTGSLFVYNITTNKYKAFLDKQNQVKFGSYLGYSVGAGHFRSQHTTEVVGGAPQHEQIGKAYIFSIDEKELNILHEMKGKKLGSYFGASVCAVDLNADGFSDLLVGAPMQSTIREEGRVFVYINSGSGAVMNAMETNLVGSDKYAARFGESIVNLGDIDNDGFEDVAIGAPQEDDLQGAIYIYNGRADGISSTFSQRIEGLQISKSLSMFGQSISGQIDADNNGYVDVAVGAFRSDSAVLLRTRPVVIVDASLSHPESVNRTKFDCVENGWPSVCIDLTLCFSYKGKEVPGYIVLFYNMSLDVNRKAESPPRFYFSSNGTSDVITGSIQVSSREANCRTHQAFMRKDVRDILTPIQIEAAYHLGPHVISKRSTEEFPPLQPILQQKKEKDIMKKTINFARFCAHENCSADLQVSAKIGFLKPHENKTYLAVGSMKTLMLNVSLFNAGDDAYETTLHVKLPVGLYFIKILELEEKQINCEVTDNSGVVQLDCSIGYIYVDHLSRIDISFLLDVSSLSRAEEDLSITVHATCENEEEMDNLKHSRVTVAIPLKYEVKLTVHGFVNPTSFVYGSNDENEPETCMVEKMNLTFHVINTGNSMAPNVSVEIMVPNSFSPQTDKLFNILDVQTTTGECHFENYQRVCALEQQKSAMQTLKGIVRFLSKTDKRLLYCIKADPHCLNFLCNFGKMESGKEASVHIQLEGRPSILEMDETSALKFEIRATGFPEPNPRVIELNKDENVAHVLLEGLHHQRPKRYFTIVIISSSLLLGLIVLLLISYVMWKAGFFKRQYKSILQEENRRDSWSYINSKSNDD
T1 sequence (P05556 21-798): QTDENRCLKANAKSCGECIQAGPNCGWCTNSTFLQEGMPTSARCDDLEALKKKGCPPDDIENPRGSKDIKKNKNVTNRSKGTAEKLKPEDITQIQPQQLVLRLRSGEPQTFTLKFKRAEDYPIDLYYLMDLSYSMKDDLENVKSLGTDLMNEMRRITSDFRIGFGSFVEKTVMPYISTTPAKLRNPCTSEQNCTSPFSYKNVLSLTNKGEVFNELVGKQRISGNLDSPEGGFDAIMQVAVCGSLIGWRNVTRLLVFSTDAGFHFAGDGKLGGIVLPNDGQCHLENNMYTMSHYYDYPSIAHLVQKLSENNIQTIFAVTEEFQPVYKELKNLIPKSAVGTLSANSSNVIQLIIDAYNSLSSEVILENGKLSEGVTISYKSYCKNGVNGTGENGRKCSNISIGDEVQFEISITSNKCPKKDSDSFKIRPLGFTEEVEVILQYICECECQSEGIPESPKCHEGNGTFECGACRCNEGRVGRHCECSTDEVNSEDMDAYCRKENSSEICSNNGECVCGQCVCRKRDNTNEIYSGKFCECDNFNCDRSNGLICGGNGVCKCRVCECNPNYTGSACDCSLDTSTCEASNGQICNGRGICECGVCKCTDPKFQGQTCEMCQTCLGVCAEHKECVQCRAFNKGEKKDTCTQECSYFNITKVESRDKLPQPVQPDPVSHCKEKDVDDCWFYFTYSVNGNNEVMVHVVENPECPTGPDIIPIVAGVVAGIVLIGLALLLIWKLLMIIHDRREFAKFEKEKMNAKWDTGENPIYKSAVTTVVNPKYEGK

SMILES | IC50
CC(C)[C@H](NC(=O)[C@H](CC(=O)O)N(C)C(=O)CN1C(=O)N(Cc2ccc3ccccc3c2)C(C)(c2ccc(C(=N)N)cc2)C1=O)C(=O)N1CCOCC1 (stereo partly drawn) [Example 5, ((R,S)-4-(4-(Amino-imino-methyl)phenyl)-3-(2-naphthylmethyl)-4-methyl-2,5-dioxoimidazolidin-1-yl)acetyl-L-(N-methylaspartyl)-L-valine morpholide] | 0.73 µM
CC1(c2ccc(C(=N)N)cc2)C(=O)N(CC(=O)NC[C@H](NC(=O)OCC23CC4CC(CC(C4)C2)C3)C(=O)O)C(=O)N1Cc1ccccc1 (stereo partly drawn) [Example 1, (S)-3-(((R,S)-4-(4-(Amino-imino-methyl)phenyl)-3-benzyl-4-methyl-2,5-dioxoimidazolidin-1-yl)acetylamino)-2-(1-adamantylmethyloxy-carbonylamino)propionic acid] | 1.25 µM
CC1(c2ccc(C(=N)N)cc2)C(=O)N(CC(=O)NC[C@H](NC(=S)NCc2ccccc2)C(=O)O)C(=O)N1Cc1ccccc1 (stereo partly drawn) [Example 4, (S)-(((R,S)-4-(4-(Amino-imino-methyl)phenyl)-3-benzyl-4-methyl-2,5-dioxoimidazolidin-1-yl)acetylamino)-2-benzylaminothiocarbonylamino-propionic acid] | 10.5 µM
CC1(c2ccc(C(=N)N)cc2)C(=O)N(CC(=O)NC[C@H](NC(=O)NCc2ccccc2)C(=O)O)C(=O)N1Cc1ccccc1 (stereo partly drawn) [Example 3, (S)-3-(((R,S)-4-(4-(Amino-imino-methyl)phenyl)-3-benzyl-4-methyl-2,5-dioxoimidazolidin-1-yl)acetylamino)-2-benzylaminocarbonylaminopropionic acid] | 11.5 µM
